Structures are written as SMILES.

Holding throughout (test): In vitro antifungal activity, microbroth dilution MIC
Common to all, as to type: cell-based
For orientation: Broth dilution looks for growth in wells or tubes with falling amounts of substance.

Experiment [1] relates to Aspergillus furnigatus B. 19119. The note with it: A furnigatus B. 19119, RPMI-1640, 35° C., 4 to 48 hours. In a few lines:
(§1)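 Broth microdilution adapted from NCCLS M27, in RPMI-1640 with 0.165 M MOPS, pH 7.0. Yeast or mould inoculum at 2×10^3 CFU/ml was mixed 1:1 with DMSO-derived compound solutions (200 to 0.10 μg/ml before mixing) and incubated at 35 °C for 4 to 48 h. MIC was the concentration showing no growth.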

Experiment [2] has as its system Aspergillus niger A. 16404. Particulars: A. niger A. 16404, RPMI-1640, 35° C., 4 to 48 hours. A digest of the protocol:
as §1

The subject of experiment [3] is Candida albicans A. 10231. The note with it: C. albicans A. 10231, RPMI-1640, 35° C., 4 to 48 hours. In a few lines:
as §1

Another experiment relates to Candida albicans C1-2. Particulars: C. albicans C1-2, RPMI-1640, 35° C., 4 to 48 hours. In a few lines:
as §1

In experiment [4] the test system is Candida albicans IFO. 1385. Particulars: C. albicans IFO. 1385, RPMI-1640, 35° C., 4 to 48 hours. A digest of the protocol:
as §1

A further experiment concerns Candida krusei K. 11655. The note with it: C. krusei K. 11655, RPMI-1640, 35° C., 4 to 48 hours. In a few lines: as §1
For experiment [5], the system named is Candida parapsitosis A. 7330. Particulars: C. parapsitosis A. 7330, RPMI-1640, 35° C., 4 to 48 hours. In a few lines: as §1
The subject of experiment [6] is Candida pseudotropicalis K. 11658. The note with it: C. pseudotropicalis K. 11658, RPMI-1640, 35° C., 4 to 48 hours. In a few lines: as §1
Experiment [7] relates to Candida tropicalis A. 13803. Particulars: C. tropicalis A. 13803, RPMI-1640, 35° C., 4 to 48 hours. A digest of the protocol: as §1
Experiment [8] concerns Cryptococcus neoformans A. 34144. Particulars: Cry. neoformans A. 34144, RPMI-1640, 35° C., 4 to 48 hours. A digest of the protocol:
as §1

Experiment [9] has as its system Cryptococcus neoformans B. 42419. Particulars: Cry. neoformans B. 42419, RPMI-1640, 35° C., 4 to 48 hours. A digest of the protocol: as §1
The test system of experiment [10] is Cryptococcus neoformans IFM. 40092. The note with it: Cry. neoformans IFM. 40092, RPMI-1640, 35° C., 4 to 48 hours. A digest of the protocol:
as §1

Experiment [11] relates to Torulopsis glabrata B. 16205. The note with it: T. glabrata B. 16205, RPMI-1640, 35° C., 4 to 48 hours. A digest of the protocol: as §1
In experiment [12] the test system is Trichophyton mentagrophytes A. 9129. Particulars: T. mentagrophytes A. 9129, RPMI-1640, 35° C., 4 to 48 hours. A digest of the protocol:
as §1

For experiment [13], the system named is Trichophyton mentagrophytes B. 32663. The note with it: T. mentagrophytes B. 32663, RPMI-1640, 35° C., 4 to 48 hours. In a few lines:
as §1

Consider `FC(=Cc1cccc2ccccc12)OCC1COC(Cn2ccnc2)(c2ccc(F)cc2F)O1` (mixture of isomers) [Ex. 51], for which the “Minimal inhibitory concentration (MIC)” value was 3.13 µg/mL in experiment [1]; 12.5 µg/mL in [2]; 12.5 µg/mL in [3]; 12.5 µg/mL in the experiment with Candida albicans C1-2; 0.39 µg/mL in [4]; 50.0 µg/mL with Candida krusei K. 11655. Besides, the “Minimal inhibitory concentration (MIC)” value in experiment [5] is over 100 µg/mL; in experiment [6] it was 25.0 µg/mL; in experiment [7], 25.0 µg/mL; in experiment [8] it was 1.56 µg/mL; in experiment [9], 1.56 µg/mL; in experiment [10] it was 0.20 µg/mL. Besides, the “Minimal inhibitory concentration (MIC)” value in experiment [11] turned out to be 6.25 µg/mL; in experiment [12], 1.56 µg/mL; in experiment [13] it was 0.78 µg/mL.

As to `FC(OCC1COC(Cn2ccnc2)(c2ccc(F)cc2F)O1)=C(c1ccccc1)C(F)(F)F` (mixture of isomers) [Ex. 52], the “Minimal inhibitory concentration (MIC)” value in [1] was 1.56 µg/mL; in experiment [2] it was 6.25 µg/mL; in [3], 12.5 µg/mL; with Candida albicans C1-2, 12.5 µg/mL; in experiment [4], 0.39 µg/mL; in the experiment with Candida krusei K. 11655, 100 µg/mL. In addition, the “Minimal inhibitory concentration (MIC)” value is over 100 µg/mL in experiment [5]; 50.0 µg/mL in experiment [6]; 50.0 µg/mL in [7]; 0.78 µg/mL in experiment [8]; 0.78 µg/mL in [9]; “≦0.10 μg/ml” in experiment [10]. The results for the “Minimal inhibitory concentration (MIC)” value in experiment [11], in experiment [12] and in [13] were 3.13 µg/mL, 1.56 µg/mL and 0.78 µg/mL, respectively.

Turning to `Cc1cccc(C(=C(F)OCC2COC(Cn3ccnc3)(c3ccc(F)cc3F)O2)C(F)(F)F)c1` (mixture of isomers) [Ex. 53], the “Minimal inhibitory concentration (MIC)” value in experiment [1] is 3.13 µg/mL; in [2] it was 25.0 µg/mL; in experiment [3], 12.5 µg/mL; in the experiment with Candida albicans C1-2 it was 25.0 µg/mL; in experiment [4], 0.78 µg/mL; in the experiment on Candida krusei K. 11655, over 100 µg/mL. Moreover, the “Minimal inhibitory concentration (MIC)” value in experiment [5] is over 100 µg/mL; in experiment [6], over 100 µg/mL; in [7] it was 100 µg/mL; in experiment [8] it was 1.56 µg/mL; in [9], 0.78 µg/mL; in experiment [10] it was “≦10.10 μg/ml”. Besides, the “Minimal inhibitory concentration (MIC)” value in experiment [11] amounted to 6.25 µg/mL; in experiment [12], 3.13 µg/mL; in [13] it was 1.56 µg/mL.

The values are drawn from US6376497B1, “Antifungal azole derivatives having a fluorinated vinyl group and process for preparing same” (Korea Research Institute of Chemical Technology, priority 1999, dated 2002).
